Results on 25 compounds are retold here after patent publication US8829014B2, “Thiazole and thiophene analogues, and their use in treating autoimmune diseases and cancers” (Board of Supervisors of Louisiana State University and …, priority 2006, dated 2014).

One test deals with carageenan-induced edema. Description: Carrageenan-induced rat paw edema test (anti-inflammatory activity). The format is in vivo, Sprague-Dawley rats. In a few lines: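 Edema was raised by sub-plantar injection of 1% carrageenan into the right hind paw, 1 h after dosing 18 h-fasted male/female Sprague-Dawley rats (150-250 g) with 50 mg/kg p.o. in 0.1% CMC. Swelling was measured by displacement 3 h later and expressed as % protection against saline control.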
(In general: The carrageenan paw model is a standard test of acute inflammation.)

For the next test, the system named is NF-κB. The test can be described thus: TNF-α-induced NF-κB-dependent luciferase expression in HEK cells. The format is cell-based. To be noted: luciferase in HEK/NF-κB cells, as described in Example 398; for inhibition at 1 µM: Homo sapiens, HEK293, 1 uM, read-out: NFkB inhibition @ 1 uM.
Another test deals with AP-1. The test can be described thus: PMA-induced AP-1 luciferase expression in HEK cells. The format is cell-based. Particulars: luciferase in HEK/AP-1 cells, as described in Example 398; for inhibition at 1 µM: AP1, 1 uM.
[1] abbreviates: Rattus norvegicus, po, 3 h, rat paw edema, 50 mg/kg, reading 3 hours after carrageenan; [(Control−Test)/Control]×100%; read-out: % Protection P.
The mark [2] stands for this setting: rat paw edema, 50 mg/kg, reading 3 hours after carrageenan; [(Control−Test)/Control]×100%.

Turning to `COc1c(C)cc(C(=O)c2cc(-c3ccc(NC(C)=O)cc3)c(N3CCOCC3)s2)nc1C` [Example 64, N-{4-[5-(5-Methoxy-4,6-dimethyl-pyridine-2-carbonyl)2-morpholin-4-yl-thiophene-3-yl]-phenyl}-acetamide], the inhibition in vivo at 50 mg/kg in the test with carageenan-induced edema (setting [1]) was found to be 49%. In addition, the inhibition (as a rule, the change of the read-out against control, counted positive when it falls) at 1 µM in the test with NF-κB was -4.95%; in the test with AP-1 it was 26.2%.

As to `O=c1c2ccccc2nc(-c2cc(-c3ccc(Cl)cc3)c(N3CCOCC3)s2)n1-c1ccccc1` [Example 273, 2-[4-(4-Chloro-phenyl)-5-morpholin-4-yl-thiophen-2-yl]-3-phenyl-3H-quinazolin-4-one], in the test on carageenan-induced edema (setting [1]), the inhibition in vivo at 50 mg/kg is 0%. Also, the results for the inhibition at 1 µM in the test on NF-κB and in the test with AP-1 were -35% and -17%, respectively.

As for `Cc1cccc(-n2c(-c3cc(-c4ccncc4)c(N4CCOCC4)s3)nc3ccccc3c2=O)c1` [Example 289, 2-(5-Morpholin-4-yl-4-pyridin-4-yl-thiophen-2-yl)-3-m-tolyl-3H-quinazolin-4-one], the inhibition in vivo at 50 mg/kg in the test with carageenan-induced edema (setting [1]) worked out at 30%. In addition, the inhibition at 1 µM was 42% in the test with NF-κB and 35% in the test on AP-1.

Take `CC(=O)Nc1ccc(C(=O)c2cc(-c3ccc(NC(C)=O)cc3)c(N3CCOCC3)s2)cc1` [Example 73, N-{4-[5-(4-acetylamino-benzoyl)-2-morpholin-4-yl-thiophene-3-yl]-phenyl}-acetamide]: the inhibition in vivo at 50 mg/kg in the test on carageenan-induced edema (setting [1]) was -23.5%. In addition, the inhibition at 1 µM with NF-κB was -28.6%; with AP-1, 19.9%.

As for `COc1c(C)cnc(-c2sc(N3CCN(C(=O)c4ccco4)CC3)nc2-c2ccco2)c1C` [Example 378, Furan-2-yl-{4-[4-furan-2-yl-5-(4-methoxy-3,5-dimethyl-pyridin-2-yl)-thiazol-2-yl]-piperazin-1-yl}-methanone], in the test on carageenan-induced edema (setting [1]), the inhibition in vivo at 50 mg/kg amounted to 84.2%. The results for the inhibition at 1 µM in the test with NF-κB and in the test on AP-1 were 22.1% and 43.3%, respectively.

For `CSc1ccc(C(=O)c2cc(-c3cccnc3)c(N3CCOCC3)s2)cc1` [Example 95, (4-Methylsulfanyl-phenyl)-(5-morpholin-4-yl-4-pyridin-3-yl-thiophen-2-yl)-methanone], the “% Protection P” value with carageenan-induced edema (rat paw edema, 50 mg/kg, reading 3 hours after carrageenan; [(Control−Test)/Control]×100%; 50 mg/kg) is listed as 42.44%. Besides, the “NFkB inhibition @ 1 uM” value with NF-κB is 11.24. For the same compound, in the test with AP-1, the “AP-1 inhibition @ 1 uM” value came out at 64.02.

For `CSc1ccc(C(=O)c2cc(-c3ccccc3)c(N3CCOCC3)s2)cc1` [Example 47, (4-Methylsulfanyl-phenyl)-(5-morpholin-4-yl-4-phenyl-thiophene-2-yl)-methanone], the inhibition in vivo at 50 mg/kg in the test on carageenan-induced edema (setting [1]) was 5%. Also, the inhibition at 1 µM with NF-κB was -1.5%; in the test with AP-1, 21.2%.

In the case of `COc1ccc(C(=O)c2cc(-c3ccc(S(C)(=O)=O)cc3)c(N3CCOCC3)s2)cc1` [Example 56, [4-(4-Methanesulfonyl-phenyl)-5-morpholin-4-yl-thiophene-2-yl]-(4-methoxy-phenyl)-methanone], the inhibition in vivo at 50 mg/kg in the test with carageenan-induced edema (setting [1]) was 77.8%. The inhibition at 1 µM in the test with NF-κB amounted to 18.1%; with AP-1 it was 76.1%.

As for `Nc1nc(Nc2ccc(Cl)cc2)sc1C(=O)c1cccnc1` [Example 338, (4-Amino-2-(4-chlorophenylamino)-thiazol-5-yl)-pyridin-3-yl-methanone], the inhibition in vivo at 50 mg/kg with carageenan-induced edema (setting [1]) amounted to 25.8%. For the same compound, the inhibition at 1 µM was -84.1% in the test on NF-κB and -89.1% with AP-1.

For the compound “(5-Morpholin-4-yl-4-pyridin-3-yl-thiophene-2-yl)-phenyl-methanone [Example 90]”, the “% Protection P” value with carageenan-induced edema (setting [2]) is 6.09%. For the same compound, in the test on NF-κB, the “NFkB inhibition @ 1 uM” value turned out to be 7.91. The “AP-1 inhibition @ 1 uM” value in the test with AP-1 was 59.49.

As to `COc1ccc(Nc2nc(N)c(C(=O)c3cccnc3)s2)cc1` [Example 349, ([4-Amino-2-(4-methoxy-phenylamino)-thiazol-5-yl]-pyridin-3-yl-methanone)], the inhibition in vivo at 50 mg/kg in the test with carageenan-induced edema (setting [1]) came to 18.2%. Further, the results for the inhibition at 1 µM with NF-κB and in the test with AP-1 were -35.9% and 51.5%, respectively.

Turning to `COc1ccc(C(=O)c2sc(Nc3ccc(Cl)cc3)nc2N)cc1` [Example 332, [4-Amino-2-(4-chloro-phenylamino)-thiazol-5-yl]-(4-methoxy-phenyl)-methanone], the inhibition in vivo at 50 mg/kg with carageenan-induced edema (setting [1]) is 36%. Also, the inhibition at 1 µM in the test on NF-κB was 0.13%; with AP-1 it was -32.2%.

As for `COc1ccc(-n2c(-c3cc(-c4ccc(S(C)(=O)=O)cc4)c(N4CCOCC4)s3)nc3ccccc3c2=O)cc1` [Example 303, 2-[4-(4-Methanesulphonyl-phenyl)-5-morpholin-4-yl-thiophen-2-yl]-3-(4-methoxy-phenyl)-3H-quinazolin-4-one], the inhibition in vivo at 50 mg/kg with carageenan-induced edema (setting [1]) turned out to be 53%. For the same compound, the inhibition at 1 µM in the test on NF-κB came to 60%; in the test with AP-1, 10%.

In the case of `CSc1ccc(C(=O)c2cc(-c3ccc(NC(C)=O)cc3)c(N3CCOCC3)s2)cc1` [Example 71, N-{4-[5-(4-Methansulfanyl-benzoyl)-2-morpholin-4-yl-thiophene-3-yl]-phenyl}-acetamide], the “% Protection P” value in the test with carageenan-induced edema (setting [2]) came to 2.5%. Also, in the test with NF-κB, the “NFkB inhibition @ 1 uM” value is given as 7.6. Besides, in the test with AP-1, the “AP-1 inhibition @ 1 uM” value was 27.75.

Consider `COc1c(C)cc(-c2cc(-c3ccncc3)c(N3CCOCC3)s2)nc1C` [Example 100, 4-[5-(5-Methoxy-4,6-dimethyl-pyridin-2-yl)-3-pyridin-4-yl-thiophen-2-yl]-morpholine], for which, in the test on carageenan-induced edema (setting [1]), the inhibition in vivo at 50 mg/kg was found to be 54.2%. For the same compound, the inhibition at 1 µM is 5.21% with NF-κB and 47.4% in the test with AP-1.

Take `CS(=O)(=O)c1ccc(C(=O)c2sc(N3CCN(C(=O)c4ccco4)CC3)nc2-c2ccccc2)cc1` [Example 385, {2-[4-(Furan-2-carbonyl)-piperazin-1-yl]-4-phenyl-thiazol-5-yl}-(4-methanesulfonyl-phenyl)-methanone]: the inhibition in vivo at 50 mg/kg with carageenan-induced edema (setting [1]) was 67%. Also, the values for the inhibition at 1 µM in the test on NF-κB and in the test on AP-1 were -15.1% and 6.44%, respectively.

As for `O=C(c1cccnc1)c1sc(N2CCN(C(=O)c3ccco3)CC2)nc1-c1ccccc1` [Example 386, {2-[4-(Furan-2-carbonyl)-piperazin-1-yl]-4-phenyl-thiazol-5-yl}-pyridin-3-yl-methanone], the inhibition in vivo at 50 mg/kg with carageenan-induced edema (setting [1]) was 23%. For the same compound, the inhibition at 1 µM in the test with NF-κB was 52.8%; in the test on AP-1, 22.5%.

Turning to `CS(=O)(=O)c1ccc(C(=O)c2sc(N3CCN(C(=O)c4ccco4)CC3)nc2-c2ccco2)cc1` [Example 375, {2-[4-(Furan-2-carbonyl)-piperazin-1-yl]-4-furan-2-yl-thiazol-5-yl}-(4-methanesulfonyl-phenyl)-methanone], in the test with carageenan-induced edema (setting [1]), the inhibition in vivo at 50 mg/kg stood at 49%. Moreover, the inhibition at 1 µM was -13.2% in the test on NF-κB and 22.1% with AP-1.

Regarding `O=c1c2ccccc2nc(-c2cc(-c3ccccc3)c(N3CCOCC3)s2)n1-c1ccc(Cl)cc1` [Example 309, 3-(4-Chloro-phenyl)-2-(5-morpholin-4-yl-4-phenyl-thiophen-2-yl)-3H-quinazolin-4-one], in the test on carageenan-induced edema (setting [1]), the inhibition in vivo at 50 mg/kg turned out to be 66%. Further, the inhibition at 1 µM in the test on NF-κB came out at 0%; in the test on AP-1, 2%.

As for `CS(=O)(=O)c1ccc(C(=O)c2cc(-c3cccnc3)c(N3CCOCC3)s2)cc1` [Example 96, (4-Methylsulfonyl-phenyl)-(5-morpholin-4-yl-4-pyridin-3-yl-thiophen-2-yl)-methanone], the inhibition in vivo at 50 mg/kg with carageenan-induced edema (setting [1]) stood at 46.8%. The results for the inhibition at 1 µM in the test with NF-κB and in the test with AP-1 were -12.9% and 37.7%, respectively.

In the case of `COC(=O)Nc1nc(Cc2ccccc2)c(C(=O)c2sc(NC(=O)OC)nc2Cc2ccccc2)s1` [Example 137, Dimethyl[carbonyl-bis(4-benzyl-1,3-thiazole-5,2-diyl)]biscarbamate], in the test with carageenan-induced edema (setting [1]), the inhibition in vivo at 50 mg/kg is 47.2%. Moreover, the values for the inhibition at 1 µM in the test on NF-κB and with AP-1 were 7.69% and 51.3%, respectively.

With `COc1c(C)cnc(-c2sc(N3CCN(C(=O)c4ccco4)CC3)nc2-c2ccccc2)c1C` [Example 388, Furan-2-yl-{4-[5-(4-methoxy-3,5-dimethyl-pyridin-2-yl)-4-phenyl-thiazol-2-yl]-piperazin-1-yl}-methanone], the inhibition in vivo at 50 mg/kg in the test on carageenan-induced edema (setting [1]) was determined as 73.4%. The figures for the inhibition at 1 µM with NF-κB and with AP-1 were 7.64% and 52.1%, respectively.

As to `O=c1c2ccccc2nc(-c2cc(-c3ccccc3)c(N3CCOCC3)s2)n1-c1ccccc1` [Example 272, 2-(5-Morpholin-4-yl-4-phenyl-thiophene-2-yl)-3-phenyl-3H-quinazolin-4-one], the inhibition in vivo at 50 mg/kg in the test with carageenan-induced edema (setting [1]) worked out at 30%. The inhibition at 1 µM in the test with NF-κB is -2%; in the test with AP-1, 11%.

Take `COc1c(C)cc(-c2cc(-c3ccc(S(C)(=O)=O)cc3)c(N3CCOCC3)s2)nc1C` [Example 52, 4-[3-(4-Methanesulfonyl-phenyl)-5-(5-methoxy-4,6-dimethyl-pyridine-2-yl)-thiophene-2-yl]-morpholine]: the inhibition in vivo at 50 mg/kg with carageenan-induced edema (setting [1]) came out at 61.1%. Moreover, the inhibition at 1 µM with NF-κB is 5.81%; in the test on AP-1, -7.93%.

As to `Cc1c(OCC(F)(F)F)ccnc1-c1sc(N2CCN(C(=O)c3ccco3)CC2)nc1-c1ccco1` [Example 379, Furan-2-yl-(4-{4-furan-2-yl-5-[3-methyl-4-(2,2,2-trifluoro-ethoxy)-pyridin-2-yl]-thiazol-2-yl}-piperazin-1-yl)-methanone], the inhibition in vivo at 50 mg/kg in the test with carageenan-induced edema (setting [1]) came to 62.4%. Also, the inhibition at 1 µM in the test with NF-κB is 51.1%; with AP-1, 3.23%.
